In ChEMBL document CHEMBL4196027, “Structure-based discovery of cytotoxic dimeric tetrahydroxanthones as potential topoisomerase I inhibitors from a marine-derived fungus” (Eur J Med Chem, 2018):
Calls of active or inactive are those of the source. No cut-off for these calls is given here.

Experiments:
[1] = test system: HL-60; assay: Cytotoxicity against human HL60 cells assessed as reduction in cell proliferation after 48 hrs by MTT assay; format: functional, cell-based
[2] = test system: K562; assay: Cytotoxicity against human K562 cells assessed as reduction in cell proliferation after 48 hrs by MTT assay; format: functional, cell-based
[3] = test system: A549; assay: Cytotoxicity against human A549 cells assessed as reduction in cell proliferation after 48 hrs by MTT assay; format: functional, cell-based
[4] = test system: NCI-H1975; assay: Cytotoxicity against human NCI-H1975 cells assessed as reduction in cell proliferation after 48 hrs by MTT assay; format: functional, cell-based
[5] = test system: MGC-803; assay: Cytotoxicity against human MGC803 cells assessed as reduction in cell proliferation after 48 hrs by MTT assay; format: functional, cell-based
[6] = Cytotoxicity against human HO8910 cells assessed as reduction in cell proliferation after 48 hrs by MTT assay; format: functional, cell-based
[7] = test system: HCT-116; assay: Cytotoxicity against human HCT116 cells assessed as reduction in cell proliferation after 48 hrs by MTT assay; format: functional, cell-based
[8] = test system: HEK293; assay: Cytotoxicity against HEK293 cells assessed as reduction in cell proliferation after 48 hrs by MTT assay; format: cell-based; settings: Homo sapiens, HEK293, 48 h
[9] = target: T1, DNA topoisomerase 1 (Homo sapiens) (UniProt P11387); assay: Inhibition of DNA topoisomerase-1 (unknown origin) up to 40 uM using supercoiled pBR322 DNA as substrate preincubated with enzyme followed by substrate addition measured after 30 mins by ethidium bromide staining based agarose gel electrophoresis method
T1 sequence (whole entry): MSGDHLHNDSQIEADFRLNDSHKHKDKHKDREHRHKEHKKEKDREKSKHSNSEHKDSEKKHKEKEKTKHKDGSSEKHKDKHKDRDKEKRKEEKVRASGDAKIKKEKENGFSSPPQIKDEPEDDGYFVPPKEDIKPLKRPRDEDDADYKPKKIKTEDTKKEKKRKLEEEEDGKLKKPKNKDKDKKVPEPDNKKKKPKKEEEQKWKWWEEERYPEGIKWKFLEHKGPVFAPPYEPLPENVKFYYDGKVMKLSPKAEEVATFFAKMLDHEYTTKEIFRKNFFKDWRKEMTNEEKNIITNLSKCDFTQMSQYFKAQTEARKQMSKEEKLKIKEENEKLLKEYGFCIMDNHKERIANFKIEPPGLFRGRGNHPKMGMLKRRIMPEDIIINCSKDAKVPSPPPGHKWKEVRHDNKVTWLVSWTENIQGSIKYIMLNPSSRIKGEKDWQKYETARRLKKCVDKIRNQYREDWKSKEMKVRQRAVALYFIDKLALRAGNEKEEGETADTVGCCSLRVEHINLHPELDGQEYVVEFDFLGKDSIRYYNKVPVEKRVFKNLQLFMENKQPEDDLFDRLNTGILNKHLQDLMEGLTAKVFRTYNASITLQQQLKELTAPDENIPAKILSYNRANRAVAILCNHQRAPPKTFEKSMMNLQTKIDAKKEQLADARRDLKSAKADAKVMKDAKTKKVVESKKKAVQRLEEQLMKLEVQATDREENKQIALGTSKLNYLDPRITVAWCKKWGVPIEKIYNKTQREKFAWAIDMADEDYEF

[10] = species on record: Homo sapiens; assay: Inhibition of DNA topoisomerase-2 (unknown origin) at 100 uM using kinetoplast DNA as substrate measured after 30 mins by ethidium bromide staining based agarose gel electrophoresis method
[11] = target: T2, Topoisomerase I (Bos taurus) (UniProt Q2HPH0); assay: Inhibition of calf thymus DNA topoisomerase-1-mediated supercoiled pBR322 DNA relaxation assessed as stabilization of enzyme-DNA complex at 100 uM preincubated with enzyme followed by substrate addition measured after 30 mins by ethidium bromide staining based agarose gel electrophoresis method
T2 sequence (whole entry): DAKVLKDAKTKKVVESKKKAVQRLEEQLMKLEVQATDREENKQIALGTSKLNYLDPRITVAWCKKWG

[12] = target: T2, Topoisomerase I (Bos taurus); settings: 40 uM
Description: Inhibition of calf thymus DNA topoisomerase-1-mediated supercoiled pBR322 DNA relaxation assessed as stabilization of enzyme-DNA complex at 40 uM preincubated with enzyme followed by substrate addition measured after 30 mins by ethidium bromide staining based agarose gel electrophoresis method

[13] = test system: DNA; assay: Inhibition of ethidium bromide binding to Escherichia coli pBR322 DNA at 100 uM after 30 mins by fluorescence assay; format: nucleic-acid assay
[14] = target: T1, DNA topoisomerase 1 (Homo sapiens); assay: Inhibition of DNA topoisomerase-1 (unknown origin) using supercoiled pBR322 DNA as substrate preincubated with enzyme followed by substrate addition measured after 30 mins by ethidium bromide staining based agarose gel electrophoresis method
[15] = test system: DNA; assay: Binding affinity to Escherichia coli pBR322 DNA assessed as red shift by UV-Visible spectrum analysis; format: nucleic-acid assay
[16] = test system: DNA; assay: Binding affinity to Escherichia coli pBR322 DNA assessed as hypochromicity by UV-Visible spectrum analysis; format: nucleic-acid assay
[17] = target: T1, DNA topoisomerase 1 (Homo sapiens); assay: Inhibition of DNA topoisomerase-1 (unknown origin) at 10 uM using supercoiled pBR322 DNA as substrate preincubated for 1 to 30 mins followed by substrate addition by ethidium bromide staining based agarose gel electrophoresis method; settings: TDE = time-dependent effect
[18] = target: T1, DNA topoisomerase 1 (Homo sapiens); assay: Inhibition of DNA topoisomerase-1 (unknown origin) at 10 uM using supercoiled pBR322 DNA as substrate preincubated for 15 mins followed by substrate addition measured after 30 mins by ethidium bromide staining based agarose gel electrophoresis method
[19] = test system: MGC-803; assay: Cell cycle arrest in human MGC803 cells assessed as accumulation at G2/M phase after 24 hrs by propidium iodide staining based flow cytometry; format: functional
[20] = test system: MGC-803; assay: Induction of necrosis in human MGC803 cells after 24 hrs by Annexin V-FITC/propidium iodide staining based flow cytometry; format: functional, cell-based
[21] = test system: MGC-803; assay: Induction of apoptosis in human MGC803 cells assessed as change in PARP protein expression up to 25 uM after 24 hrs by Western blot analysis; format: functional, cell-based
[22] = test system: MGC-803; assay: Induction of apoptosis in human MGC803 cells assessed as change in procaspase-9 protein expression up to 25 uM after 24 hrs by Western blot analysis; format: functional, cell-based
[23] = test system: MGC-803; assay: Induction of apoptosis in human MGC803 cells up to 25 uM after 48 hrs by Hoechst 33342/propidium iodide staining based flow cytometry; format: functional, cell-based
[24] = test system: MGC-803; assay: Induction of cell membrane permeability in human MGC803 cells up to 50 uM up to 72 hrs by LDH release assay; format: functional, cell-based

SMILES | IC50 ([1]; Homo sapiens, HL-60, 48 h) | IC50 ([2]; Homo sapiens, K562, 48 h) | IC50 ([3]; Homo sapiens, A549, 48 h) | IC50 ([4]; Homo sapiens, NCI-H1975, 48 h) | IC50 ([5]; Homo sapiens, MGC-803, 48 h) | IC50 ([6]; Homo sapiens, HO-8910, 48 h) | IC50 ([7]; Homo sapiens, HCT-116, 48 h) | IC50 [8] | inhibition [10] | inhibition [11] | other results
COC(=O)[C@@]12Oc3c(-c4ccc(O)c5c4O[C@]4(C(=O)OC)C(=C(O)C[C@H](C)[C@H]4O)C5=O)ccc(O)c3C(=O)C1=C(O)C[C@H](C)[C@H]2O | 0.9 µM | 0.4 µM | 11.7 µM | 3.5 µM | 0.9 µM | 1.4 µM | 0.5 µM |  |  |  | 
COC(=O)[C@@]12Oc3ccc(-c4ccc(O)c5c4O[C@]4(C(=O)OC)C(=C(O)C[C@H](C)[C@H]4O)C5=O)c(O)c3C(=O)C1=C(O)C[C@H](C)[C@H]2O | 0.5 µM | 1.1 µM | 1.6 µM |  | 1.1 µM | 1.5 µM | 1.2 µM |  |  |  | 
COC(=O)c1c(O)c(C)cc(O)c1C(=O)c1c(O)ccc(-c2ccc3c(c2O)C(=O)C2=C(O)C[C@H](C)[C@@H](O)[C@]2(C(=O)OC)O3)c1O | 27.8 µM | > 50 µM | > 50 µM | > 50 µM |  | > 50 µM | > 50 µM | > 50 µM |  |  | 
COC(=O)[C@@]12Oc3ccc(-c4ccc(O)c5c4O[C@]4(C(=O)OC)C(=C(O)C[C@H](C)[C@H]4O)C5=O)c(O)c3C(=O)C1=C(O)C[C@H](CO)[C@H]2O | 47.3 µM | > 50 µM | > 50 µM | > 50 µM |  | > 50 µM | > 50 µM | > 50 µM |  |  | 
COC(=O)[C@@]12Oc3c(-c4ccc5c(c4O)C(=O)C4=C(O)C[C@H](C)[C@@H](O)[C@]4(C(=O)OC)O5)ccc(O)c3C(=O)C1=C(O)C[C@H](CO)[C@H]2O | 49.5 µM | > 50 µM | > 50 µM | 49.5 µM | > 50 µM | > 50 µM | > 50 µM | > 50 µM | inactive | Active | inhibition [9]: Active
CC[C@@]1(O)C(=O)OCc2c1cc1n(c2=O)Cc2cc3cc(O)ccc3nc2-1 |  |  |  |  |  |  |  |  |  |  | inhibition [12]: Active
COc1cc(NS(C)(=O)=O)ccc1Nc1c2ccccc2nc2ccccc12 |  |  |  |  |  |  |  |  |  |  | inhibition [13]: Active
COC(=O)[C@@]12Oc3cc(C)c(-c4ccc5c(c4O)C(=O)C4=C(O)C[C@H](C)[C@@H](O)[C@]4(C(=O)OC)O5)c(O)c3C(=O)C1=C(O)CC[C@H]2O (stereo in doubt; 1) |  |  |  |  |  |  |  |  | inactive | Active | inhibition [14]: Dose-dependent effect; inhibition [13]: inactive; Activity [15]: inactive; Activity [16]: inactive; inhibition [17]: Tde; inhibition [18]: 100%; Activity [19]: Dose-dependent effect; Activity [20]: Dose-dependent effect; Activity [21]: inactive; Activity [22]: inactive; Activity [23]: inactive; Activity [24]: Active
COC(=O)[C@@]12Oc3cc(C)c(-c4ccc5c(c4O)C(=O)C4=C(O)C[C@H](C)[C@@H](O)[C@]4(C(=O)OC)O5)c(O)c3C(=O)C1=C(O)CC[C@H]2O (stereo in doubt; 2) [listing 1 of 2 here] |  |  |  |  |  |  |  |  |  |  | IC50 ([1]; hl-60): 6.9 µM; IC50 ([2]; k562): 22.1 µM; IC50 ([3]; a549): 19.2 µM; IC50 ([4]; nci-h1975): 5.3 µM; IC50 ([5]; mgc-803): 6.2 µM; IC50 [6]: 6.9 µM; IC50 ([7]; hct-116): 15.2 µM
COC(=O)[C@@]12Oc3cc(C)c(-c4ccc5c(c4O)C(=O)C4=C(O)C[C@H](C)[C@@H](O)[C@]4(C(=O)OC)O5)c(O)c3C(=O)C1=C(O)CC[C@H]2O (stereo in doubt; 2) [listing 2 of 2 here] |  |  |  |  |  |  |  |  | inactive | Active | inhibition [9]: Active
